Laboratory results reported in patent US10954253B2, “1,2-dihydro-3H-pyrazolo[3,4-d]pyrimidin-3-one derivative as Wee1 inhibitor” (SHIJIAZHUANG SAGACITY NEW DRUG DEVELOPMENT CO., LTD., priority 2017, dated 2021).
Converted amounts (≈) assume the structure as drawn. Where two headings read alike, the source gives them in different places.

Assays:
Wee1 = Wee1 (Homo sapiens (Human), UniProt P30291); assay: In vitro enzymatic inhibitory activity (33P-ATP filter-binding kinase assay, MBP substrate); type: biochemical; details: Wee-1 150 nM, MBP 20 μM
Procedure, shortened: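 Wee1 at 150 nM with 20 μM MBP substrate in pH 7.5 HEPES buffer (10 mM MgCl2, 2 mM DTT, 1% DMSO) was preincubated 20 min at RT with compounds in a 10-point 3-fold dilution series. The reaction was started with ^33P-ATP and run 2 h at RT. Kinase activity was measured by filter binding.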

[1] = Pharmacokinetic evaluation in BALB/c mice after intravenous and oral administration; type: in vivo; details: mouse, plasma, BALB/c mice (female), single intravenous injection and oral administration; for clearance: read-out: Clearance rate; for AUC: read-out: Concentration integral AUC; for half-life: read-out: Half-life T1/2 (converted); for bioavailability: read-out: bioavailability F
Experimental: Experimental objective: pharmacokinetics evaluation of the compound in BALB/c nude mice.
The rodent pharmacological characteristics of the compound after intravenous administration and oral administration were tested by a standard protocol, the candidate compound in the experiment was formulated into a clear solution, and the mice were administered by a single intravenous injection and oral administration. The intravenous and oral vehicles are a certain proportion of aqueous hydroxypropyl 3-cyclodextrin or physiological saline solution.

[2] = Thermodynamic solubility determination; type: physicochemical; details: for solubility at 24 h: buffer, 22 °C, aqueous buffer, thermodynamic from solid
Experimental: No less than 2 mg sample powder was weighted in a Whatman miniuniprep vial. If the experiment required to test the thermodynamic solubility of the sample in multiple buffer solutions, then separate vial was required for each test.
[…] After addition of the buffer, the Whatman filter cap of the miniuniprep is mounted and pressed until it was above the liquid level to allow the filter to contact with the buffer solution during shaking. The solubility sample was vortexed for 2 minutes. And the solution phenomenon was recorded. Then the vial was shaked at room temperature (about 22 to 25° C.) for 24 hours at a speed of 550 rpm. And the Whatman Miniunipreps filter cap was pressed to bottom to obtain the filtrate of the solubility solution of the sample. All sample vials should conduct filtration for the insoluble matter before and after and osmotic phenomenon. The […] was diluted 50 times to obtain a sample dilution.
Three UV standard solutions were injected from low to high concentrations into HPLC, and then dilution and supernatant of the test compounds were injected. The sample was injected and tested twice. Integration was conducted to the UV peaks. The standard curve was established and the thermodynamic solubility of the sample was calculated.

[3] = Tissue distribution (PK) in BALB/c nude mice bearing human colon cancer LoVo xenografts; type: in vivo; details: mouse, LoVo xenograft mice, oral 40 mg/kg twice a day for three weeks, after last administration
Experimental: (1) In vivo PD study of the compound used on tumors of human colon cancer LoVo cells subcutaneously xenografted to BALB/c nude mice model
Experimental method: the experimental animals used were BALB/c nude mice (provided by Shanghai Xipuer-Beikai Experimental animal CO., Ltd), 6-8 weeks old, weighting 18-22 g.
Human colon cancer LoVo cells, monolayer-cultured in vitro, culturing condition was Ham's F-12 medium supplemented with 10% fetal bovine serum, 100 U/mL penicillin, 100 μg/mL streptomycin and 2 mM glutamine, 37° C., 5% CO2. Conventional digestion treatment passage was done with trypsin-EDTA twice a week. When the cell saturation reached 80%-90%, the cells were collected, counted, and inoculated. 0.1 mL (10×106) of LoVo cells were subcutaneously inoculated into the right back of each nude mouse, and group administration was started when the average tumor volume reached 213 mm^3. The administration mode was oral administration, 40 mg/kg twice a day for three consecutive weeks.
After the last administration of the experiment, a portion of plasma, tumor, intestine, brain, lung, liver and pancreas was collected from the number 1-2 animals after 0.5 h of administration, and quick-froze for PK detection; a portion of plasma, tumor, intestine, brain, lung, liver and pancreas was collected from the number 3-4 animals after 2 h of administration, and quick-froze for PK detection; a portion of plasma, tumor, intestine, brain, lung, liver and pancreas was collected from the number 5-6 animals after 8 h of administration, and quick-froze for PK detection. The tumor, intestine, brain, lung, liver and pancreas were weighted separately and added 9 times volumes of homogenate MeOH/15 mM PBS (1:2, v:v) for homogenization. 20 μL sample was added into 300 μL of the stop buffer including internal standard for protein precipitation, and shaked to mix well. The mixture was centrifuged at 13,000 rpm for 10 minutes at 20-25° C., and 3 μL of the supernatant was taken for LCMS analysis.

[4] = pH 6.5, shaken 24 hours at room temperature, read-out: Solubility (μM) pH 6.5
[5] = pH 7.4, shaken 24 hours at room temperature, read-out: Solubility (μM) pH 7.4

Chain of Wee1 (P30291 whole entry): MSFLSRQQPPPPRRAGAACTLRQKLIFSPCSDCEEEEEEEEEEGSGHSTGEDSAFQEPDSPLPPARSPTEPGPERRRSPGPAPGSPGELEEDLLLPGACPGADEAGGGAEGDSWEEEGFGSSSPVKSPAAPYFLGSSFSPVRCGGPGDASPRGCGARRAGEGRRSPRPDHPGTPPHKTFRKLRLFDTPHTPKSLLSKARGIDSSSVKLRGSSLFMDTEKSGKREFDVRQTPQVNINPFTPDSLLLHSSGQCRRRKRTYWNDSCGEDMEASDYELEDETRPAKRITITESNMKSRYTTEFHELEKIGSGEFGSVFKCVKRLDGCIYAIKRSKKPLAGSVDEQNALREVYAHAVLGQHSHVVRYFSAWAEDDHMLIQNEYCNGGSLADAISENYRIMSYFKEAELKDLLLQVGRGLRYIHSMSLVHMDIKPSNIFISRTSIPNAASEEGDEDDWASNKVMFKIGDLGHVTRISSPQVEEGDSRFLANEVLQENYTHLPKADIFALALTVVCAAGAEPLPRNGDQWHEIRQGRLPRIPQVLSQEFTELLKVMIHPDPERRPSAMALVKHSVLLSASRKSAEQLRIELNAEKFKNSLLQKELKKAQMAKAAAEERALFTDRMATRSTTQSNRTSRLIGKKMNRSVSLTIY

## C=CCn1c(=O)c2cnc(Nc3ccc(N4CCC5(CCN(C)CC5)CC4)cc3)nc2n1-c1cccc(C(=O)N(C)C)n1 [Embodiment 15, 6-(2-allyl-6-((4-(9-methyl-3,9-diazaspiro[5.5]undecan-3-yl)phenyl)amino)-3-oxo-2,3-dihydro-1H-pyrazolo[3,4-d]pyrimidin-1-yl)-N,N-dimethylpicolinamide]
Wee1
  IC50: 31.5 nM
[1]
  clearance: 57.1 mL/min/kg
  AUC: 1.73 µM·h
  half-life: 102 min
  bioavailability: 35.3%

## C=CCn1c(=O)c2cnc(Nc3ccc(N4CCC5(CCN(C)CC5)CC4)cc3)nc2n1-c1cccc(C(C)(C)O)n1 [Embodiment 29, 2-allyl-1-(6-(2-hydroxypropan-2-yl)pyridin-2-yl)-6-((4-(9-methyl-3,9-diazaspiro[5.5]undecan-3-yl)phenyl)amino)-1H-pyrazolo[3,4-d]pyrimidin-3(2H)-one]
[2]; [4]
  solubility at 24 h: 1470 µM (≈ 835 µg/mL)
[2]; [5]
  solubility at 24 h: 1050 µM (≈ 595 µg/mL)
[2]; in words, compared to AZD1775, pH=6.5 and pH=7.4
  solubility in water: excellent solubility in water
Wee1
  IC50: 13.4 nM
[1]
  clearance: 51 mL/min/kg
  AUC: 2.15 µM·h
  half-life: 89.4 min
  bioavailability: 32.4%

## C=CCn1c(=O)c2cnc(Nc3ccc(N4CCN(C)CC4)cc3)nc2n1-c1cccc(C(C)(C)O)n1 [AZD1775, reference compound]
[2]; [4]
  solubility at 24 h: 434 µM (≈ 217 µg/mL)
[2]; [5]
  solubility at 24 h: 68.8 µM (≈ 34.4 µg/mL)
[1]
  clearance: 85.7 mL/min/kg
  AUC: 1.2 µM·h
  half-life: 15 min
  bioavailability: 31%
[3]; Colon
  AUC(0-t): 225 µM·h
  Cmax: 238 µM
  Tmax: 30 min
[3]; liver
  AUC(0-t): 117 µM·h
  Cmax: 38.1 µM
  Tmax: 30 min
[3]; lung
  AUC(0-t): 36.5 µM·h
  Cmax: 17.2 µM
  Tmax: 30 min
[3]; pancreas
  AUC(0-t): 55.5 µM·h
  Cmax: 35.6 µM
  Tmax: 30 min
[3]; plasma
  AUC(0-t): 6.97 µM·h
  Cmax: 3.07 µM
  Tmax: 30 min
[3]; tumer (tumor)
  AUC(0-t): 15.3 µM·h
  Cmax: 3.85 µM
  Tmax: 120 min
